Measurements: patent publication US4619943A, “Neolignans of Saururus cernuus L and analogues thereof” (priority 1984, dated 1986)
Values joined by “and” are separate entries in the source; they are usually repeats but may differ in a detail not shown here. Equal values may be shown once. “Also recorded” adds a separate entry of the source.

Assays:
[1] = Potentiation of pentobarbital sleeping time; format: in vivo, mice; set-up: Sleeping Time, Treated: unit not given here
Description: SC-8 has the ability to potentiate the sedative activity of pentobarbital. The procedure employed is that of Turner (R. A. Turner, Screening Methods in Pharmacology, Academic Press, New York, p. 302 (1965)), in which three groups of mice were injected ip with the drug at three levels and a control group with saline. […] The sleeping time of each was measured as the interval between the loss and recovery of the righting reflex, and activity is defined as at least a 200% prolongation of sleeping time.

[2] = Morphine antagonism (Straub tail phenomenon); conditions: SC-8 1.5 mg/Kg, morphine sulfate 20 mg/Kg ip
Meloidogyne incognita = assay: Nematicidal test: galls on tomato root system; format: in vivo; conditions: 10 days
Description: Juveniles of the nematode Meloidogyne incognita were placed in 10 ml vials containing 5 ml of sand each and were soaked with 3 ml of solutions of the test compound at different concentrations in 1% ethanol in water for 24 hours. Tomato seedlings (4-6" high, with roots partly trimmed) were placed in the vials which were then placed in a growth chamber at 28° for 10 days. The tests were watered as needed to keep the sand moist. After 10 days, the plants were removed, and the galls counted on each root system. Each sample was tested in replicates of 10, and the results were analyzed according to Duncan's multiple range test ([…]). The results for SC-8 are shown in Tables 3 and 4 which represent two different experiments spaced approximately two months apart. In the later test (Table 4), the amount of ethanol in the test solutions was varied.

Solubility = format: physicochemical
mice [3] = assay: Behavioral assay in mice (Campbell and Richter), sixteen behavioral signs; format: in vivo; conditions: injected, after 30 minutes
Description: The behavioral assay in mice was carried out using the procedures of Campbell and Richter (D. E. S. Campbell and W. Richter, Acta Pharmacol. et Toxicol. 25, 345 (1967)). The method involved injection of five mice with the drug and obseving for sixteen behavioral signs after 30 minutes. A recognizable pattern will be apparent, characteristic of various CNS-activities: sympathomimetic, tranquilizer, etc.
Ten male Swiss mice (20-25 g) were divided into groups. One group was injected with physiological saline to serve as control. The other group was injected with 15 mg/Kg of benzene-partition sample (prepared as in Example 2) in suspension form (0.6 mg/ml) in physiological saline solution containing 0.5% carboxymethylcellulose. […] These are all considered as indicators of neuroleptic activity.

[4] = system: mosquito larvae (Aedes aegypti); assay: Mosquito larvae test; format: in vivo; conditions: 24 hours
Description: Similarly, in a test using mosquito larvae (Aedes aegypti) as the insect test species, SC-7 gave 15% mortality and SC-8 gave 93% mortality at an application rate of 100 ppm. In this test, one ml of a solution of 1000 ppm of the test compound in 10% acetone - 90% water was added to 9 ml of water in a culture tube. Ten mosquito larvae were added, and mortality readings were taken 24 hours later.

[5] = Antiamphetamine activity (method of Weissman et al., mice instead of rats); format: in vivo
Description: Neuroleptic drugs are said to bind to postsynaptic dopamine receptors in the brain, thereby blocking dopaminergic transmission. […] Based on this, an assay for possible neuroleptic activity was developed and is commonly used. […] 151, 339 (1966)), except that mice were used instead of rats. A comparison under the same conditions was also made of the antiamphetamine activity of a standard neuroleptic drug, haloperidol, which gave an ED50 value of 0.5 mg/Kg (Table 2).

mice [6] = assay: Neuroleptic / CNS-depressant activity in experimental animals (general statements); format: in vivo

Structure (SMILES): COc1ccc(C(O)C(C)Oc2ccc([C@@H]3O[C@@H](c4ccc(OC(C)C(O)c5ccc(OC)c(OC)c5)c(OC)c4)[C@@H](C)[C@@H]3C)cc2OC)cc1OC (stereo partly drawn) [SC-8, 2α,5β-bis[3-methoxy-4-{threo-3-hydroxy-3-(3,4-dimethoxyphenyl)}isopropoxyphenyl]-3α,4β-dimethyltetrahydrofuran]
- % Increase of Sleeping Time ([1]; SC-8 0.01 mg/Kg ip, pentobarbital 40 mg/Kg): 175%
- Sleeping Time, Treated ([1]; SC-8 0.01 mg/Kg ip, pentobarbital 40 mg/Kg, control 12.0): 21.0
- % Increase of Sleeping Time ([1]; SC-8 0.06 mg/Kg ip, pentobarbital 40 mg/Kg): 217%
- Sleeping Time, Treated ([1]; SC-8 0.06 mg/Kg ip, pentobarbital 40 mg/Kg, control 12.0): 26.0
- % Increase of Sleeping Time ([1]; SC-8 0.125 mg/Kg ip, pentobarbital 40 mg/Kg): 158%
- Sleeping Time, Treated ([1]; SC-8 0.125 mg/Kg ip, pentobarbital 40 mg/Kg, control 12.0): 19.0
- % Increase of Sleeping Time ([1]; SC-8 0.25 mg/Kg ip, pentobarbital 40 mg/Kg): 304%
- Sleeping Time, Treated ([1]; SC-8 0.25 mg/Kg ip, pentobarbital 40 mg/Kg, control 10.8): 32.8
- % Increase of Sleeping Time ([1]; SC-8 0.4 mg/Kg ip, pentobarbital 42 mg/Kg): 280%
- Sleeping Time, Treated ([1]; SC-8 0.4 mg/Kg ip, pentobarbital 42 mg/Kg, control 16): 44.8
- % Increase of Sleeping Time ([1]; SC-8 0.5 mg/Kg ip, pentobarbital 40 mg/Kg): 357%
- Sleeping Time, Treated ([1]; SC-8 0.5 mg/Kg ip, pentobarbital 40 mg/Kg, control 10.8): 36.6
- % Increase of Sleeping Time ([1]; SC-8 1.0 mg/Kg ip, pentobarbital 40 mg/Kg): 300%
- Sleeping Time, Treated ([1]; SC-8 1.0 mg/Kg ip, pentobarbital 40 mg/Kg, control 10.8): 32.4
- % Increase of Sleeping Time ([1]; SC-8 4.0 mg/Kg ip, pentobarbital 42 mg/Kg): 857%
- Sleeping Time, Treated ([1]; SC-8 4.0 mg/Kg ip, pentobarbital 42 mg/Kg, control 16): 140
- prolongation of pentobarbital-sleeping time (conclusion) ([1]; dose range 1.0-0.05 mg/Kg): significant prolongation
- potentiating sedatives of the pentobarbital type (summary) ([1]; summary statement, no dose): significant activity
- effect on morphine-induced Straub tail [2]: counteracted this effect
- Degree of Tail Elevation, After 20 min. ([2]; before SC-8 40°): 10 °
- Degree of Tail Elevation, After 50 min. ([2]; before SC-8 40°): 10 °
- Number of Galls/Root System, single replicates (1 to 10) (Meloidogyne incognita; Table 3, 1 ppm, 1% ethanol): 17 (2×) and 13 and 20 and 21 and 24 and 3 and 28 and 40 and 16
- Number of Galls/Root System, Avg. (Meloidogyne incognita; Table 3, 1 ppm, 1% ethanol, 1% ethanol control 23.7, water 28.8): 19.8
- Number of Galls/Root System, single replicates (1 to 10) (Meloidogyne incognita; Table 3, 5 ppm, 1% ethanol): 26 and 34 and 3 and 0 (2×) and 19 and 24 and 4 and 14 and 13
- Number of Galls/Root System, Avg. (Meloidogyne incognita; Table 3, 5 ppm, 1% ethanol, 1% ethanol control 23.7, water 28.8): 13.7
- Number of Galls/Root System, single replicates (1 to 10) (Meloidogyne incognita; Table 3, 10 ppm, 1% ethanol): 14 (2×) and 17 and 18 and 1 and 2 and 42 and 29 and 3 and 7
- Number of Galls/Root System, Avg. (Meloidogyne incognita; Table 3, 10 ppm, 1% ethanol, 1% ethanol control 23.7, water 28.8): 14.7
- Number of Galls/Root System, single replicates (1 to 10) (Meloidogyne incognita; Table 3, 25 ppm, 1% ethanol): 3 and 10 and 11 and 18 and 17 (2×) and 26 and 15 and 12 and 24
- Number of Galls/Root System, Avg. (Meloidogyne incognita; Table 3, 25 ppm, 1% ethanol, 1% ethanol control 23.7, water 28.8): 15.3
- Number of Galls/Root System, single replicates (1 to 10) (Meloidogyne incognita; Table 3, 50 ppm, 1% ethanol): 12 (3×) and 15 and 16 (2×) and 20 and 21 and 18 and 7
- Number of Galls/Root System, Avg. (Meloidogyne incognita; Table 3, 50 ppm, 1% ethanol, 1% ethanol control 23.7, water 28.8): 14.9
- Number of Galls/Root System, single replicates (1 to 10) (Meloidogyne incognita; Table 4, 1 ppm, 0.01% ethanol): 7 and 10 and 18 and 14 and 23 and 32 and 1 and 5 and 16 and 9
- Number of Galls/Root System, Avg. (Meloidogyne incognita; Table 4, 1 ppm, 0.01% ethanol, water 25.5): 13.5
- Number of Galls/Root System, single replicates (1 to 10) (Meloidogyne incognita; Table 4, 5 ppm, 0.05% ethanol): 7 and 36 and 17 and 18 and 25 and 6 and 14 and 16 and 11
- Number of Galls/Root System, Avg. (Meloidogyne incognita; Table 4, 5 ppm, 0.05% ethanol, water 25.5): 16.7
- Number of Galls/Root System, single replicates (1 to 10) (Meloidogyne incognita; Table 4, 10 ppm, 0.1% ethanol): 10 and 22 and 34 and 23 and 25 and 26 and 24 and 0
- Number of Galls/Root System, Avg. (Meloidogyne incognita; Table 4, 10 ppm, 0.1% ethanol, water 25.5): 18.4
- Number of Galls/Root System, single replicates (1 to 10) (Meloidogyne incognita; Table 4, 25 ppm, 0.25% ethanol): 1 and 8 and 30 and 2 and 28 and 7 and 14
- Number of Galls/Root System, Avg. (Meloidogyne incognita; Table 4, 25 ppm, 0.25% ethanol, water 25.5): 10.1
- Number of Galls/Root System, single replicates (1 to 10) (Meloidogyne incognita; Table 4, 50 ppm, 0.5% ethanol): 12 and 4 and 0 and 22 and 8 and 1 and 5 and 34
- Number of Galls/Root System, Avg. (Meloidogyne incognita; Table 4, 50 ppm, 0.5% ethanol, water 25.5): 8.6
- solubility in alcohols, acetone, chloroform, benzene and ethyl acetate (Solubility; alcohols, acetone, chloroform, benzene, ethyl acetate): readily soluble
- solubility in ether (Solubility; ether): sparingly
- solubility in hexane or water (Solubility; hexane or water): very slightly
- behavioral signs (mice [3]): head drop with righting reflex; also recorded: decreased locomotion; also recorded: abduced hindlegs with righting reflex; also recorded: unsteady gait; also recorded: catalepsy
- lowering of body temperature from 37° to (mice [3]; from 37°): 31 °
- mortality at 100 ppm [4]: 93%
- ED50 ([5]; Mus musculus, mice, inhibition of amphetamine-induced agitation, stereotypy, body-hydration): 0.2 mg/kg
- % Inhibition (antiamphetamine activity) ([5]; mice, dose 0.03 mg/Kg): 20%
- % Inhibition (antiamphetamine activity) ([5]; mice, dose 0.1 mg/Kg): 40%
- % Inhibition (antiamphetamine activity) ([5]; mice, dose 0.3 mg/Kg): 60%
- % Inhibition (antiamphetamine activity) ([5]; mice, dose 0.5 mg/Kg): 60%
- % Inhibition (antiamphetamine activity) ([5]; mice, dose 1.0 mg/Kg): 70%
- % Inhibition (antiamphetamine activity) ([5]; mice, dose 1.2 mg/Kg): 80%
- % Inhibition (antiamphetamine activity) ([5]; mice, dose 1.5 mg/Kg): 80%
- inhibiting hyperactivity, agitation, and other effects induced by CNS stimulants of the amphetamine class (summary) ([5]; summary statement, no dose): significant activity
- CNS-depressant activity (mice [6]; experimental animals / mice): useful CNS-depressant activity
- neuroleptic activity (mice [6]; mouse, in vivo): neuroleptically active
